Assay results: patent publication US20020155479A1, “Expression cloning method” (Whitehead Institute for Biomedical Research, priority 1999, published 2002)

Tests used:
[1] = system: GLUT4 at the plasma membrane of 3T3-L1 cells; assay: FACS-based assay of the proportion of GLUT4 reporter at the cell surface, 3T3-L1 cells; set-up: species or system murine
Method: (§1) Confluent cells were reseeded on the indicated day of differentiation to six well plates (Coming, Costar #3506) one day before use in experiments, and were starved in DMEM without fetal bovine serum for at least 3 hours before insulin stimulation. Insulin was generally used at 160 nM; occasionally it was used at 80 nM or 200 nM and no difference was noted between these concentrations in either 3T3-L1 or CHO cells. Insulin was added directly to the wells from a 100×stock. After treatment in the presence or absence of insulin for the times indicated in each figure, cells were quickly transferred to […] and washed with cold phosphate buffered saline (PBS) containing 0.9 mM Ca^++ and 0.5 mM Mg^++ (PBS++). All subsequent steps were carried out at 4° C., and staining of externalized myc epitope was done on adherent cells. Cells were incubated with a 1:200 dilution of anti-myc (9E10) ascites or using 25 μg/ml purified 9E10 in PBS++, 2% bovine serum albumin (BSA), 4% donkey serum for 1.5 hours. Cells were then washed twice in PBS++, for 5 minutes each time. They were then incubated 45 minutes in 12.5 to 25 μg/ml R-phycoerythrin conjugated donkey F(ab′)2 anti-mouse IgG secondary antibody, diluted in PBS++, 2% BSA, 4% donkey serum. Cells were rinsed twice in PBS++, then washed three times in PBS++ for 10 minutes each time, and were resuspended by gentle scraping in PBS++, 2% BSA or PBS++, 5% fetal bovine serum for flow cytometry. For experiments involving insulin removal, cells were chilled as above after insulin stimulation, then washed twice with 5 mM sodium acetate, 150 mM NaCl, pH 4.0 (Kao, A. W., et al., 1998, J Biol Chem 273:25450-7; Yang., J., et al., 1992, J Biol Chem 267:10393-9). Cells were rewarmed in 37° C. DMEM for the times indicated, restimulated or not with insulin, and then returned to 4° C. and chilled with cold PBS++ before staining as above.
(§2) Flow cytometry was done on FACScan or FACSCalibur cytometers (Becton-Dickinson). Appropriate compensation between the FL1 and FL2 channels was set using uninfected (GFP-negative) cells or cells stained with PE only (e.g. using a PE-conjugated anti-transferrin receptor antibody; Pharmingen). […] For each sample, data from ≧10,000 cells were collected. Median fluorescence intensities were used for quantification, since this measure of central tendency is least sensitive to outliers. For each sample, the PE and GFP fluorescence specifically attributable to the presence of the GLUT4 reporter were determined by subtracting background fluorescences, measured using control unstained cells and cells not expressing the reporter, respectively. These control cells were treated with the same conditions (e.g., type of serum and media, amino acid concentrations) used for the experimental cells. The ratio of fluorescence intensities plotted on the vertical axes of many figures is a relative, not absolute, measure of the proportion of GLUT4 at the cell surface. The scales are numbered arbitrarily and are not intended to permit comparison in absolute terms of data obtained in different experiments. In some of the kinetic studies (FIG. 26), the data were subjected to a simple smoothing operation. This consisted of calculating (0.25ra1—0.5rc+0.25rc+1), where r is the ratio of specific fluorescences for timepoint t. This calculated value was used for timepoints t=2 to ten−1, where n is the total number of timepoints. For the last time point t=n, (0.33rc1+0.67r1) was calculated. Basal values of r (r1) were unchanged.
To assay changes in the proportion of GLUT4 present at the plasma membrane, a cDNA encoding a GLUT4 reporter protein was constructed. This protein contains seven c-myc epitope tags in the first exofacial loop of GLUT4, and GFP fused in-frame at the carboxy terminus. […] An anti-myc monoclonal antibody, followed by a phencoerythrin (PE)-conjugated secondary antibody, was used to detect reporter protein present at the surface of living cells. […]

[2] = system: GLUT4 at the plasma membrane of CHO cells; assay: FACS-based assay of the proportion of GLUT4 reporter at the cell surface, CHO cells; set-up: species or system Chinese Hamster
Method: as §1, §2
To measure GLUT4 trafficking at the surface of CHO cells, CHO cells expressing the murine ecotropic retroviral receptor were infected with a retrovirus carrying the GLUT4 reporter, and FACS was utilized to isolate cells falling within a narrow range of GFP fluorescence intensities. Upon insulin stimulation of these cells, externalization of the GLUT4 reporter was again noted, as detected by flow cytometry. […]

[3] = system: GLUT4 at the cell surface of NIH 3T3 cells; assay: FACS-based assay of the proportion of GLUT4 reporter at the cell surface, NIH 3T3 cells; details: NIH 3T3 cells expressing the GLUT4 reporter
Method: Confluent cells were reseeded on the indicated day of differentiation to six well plates (Coming, Costar #3506) one day before use in experiments, and were starved in DMEM without fetal bovine serum for at least 3 hours before insulin stimulation. Insulin was generally used at 160 nM; occasionally it was used at 80 nM or 200 nM and no difference was noted between these concentrations in either 3T3-L1 or CHO cells. Insulin was added directly to the wells from a 100×stock. […]
Flow cytometry was done on FACScan or FACSCalibur cytometers (Becton-Dickinson). […] Median fluorescence intensities were used for quantification, since this measure of central tendency is least sensitive to outliers. For each sample, the PE and GFP fluorescence specifically attributable to the presence of the GLUT4 reporter were determined by subtracting background fluorescences, measured using control unstained cells and cells not expressing the reporter, respectively. […] The ratio of fluorescence intensities plotted on the vertical axes of many figures is a relative, not absolute, measure of the proportion of GLUT4 at the cell surface. […] This consisted of calculating (0.25ra1—0.5rc+0.25rc+1), where r is the ratio of specific fluorescences for timepoint t. This calculated value was used for timepoints t=2 to ten−1, where n is the total number of timepoints. For the last time point t=n, (0.33rc1+0.67r1) was calculated. […]

[4] = system: GLUT4 in the plasma membrane fraction of 3T3-L1 cells; assay: Subcellular fractionation and immunoblotting of GLUT4 in plasma membrane fraction, 3T3-L1 cells; format: cell-based, murine
From the text: Four 10 cm plates of 3T3-L1 adipocytes were used per condition to isolate low density microsomal and plasma membrane fractions for FIG. 17B. Eight and ten plates per condition were used to isolate low density microsomes for analysis by sucrose density gradient centrifugation (FIG. 17C) and in vesicle immunopurification experiments (FIG. 17D), respectively. Five plates of adipocytes and ten plates of preadipocytes were used per condition in experiments presented in FIGS. 19B and 20B, respectively. For experiments presented in FIGS. 17B and 17D cells were serum starved overnight, treated with the presence or absence of insulin (160 nM, 10 min.), then transferred to 4° C. and washed with cold PBS++. For the vesicle immunopurification (FIG. 17D) cells were starved overnight, then transferred to 4° C. and washed with cold PBS++ without insulin stimulation. For kinetic studies (FIGS. 19B), 480 nM insulin was used (added from a prewarmed 3×stock) in order to maximally and simultaneously stimulate all of the cells on each 10 cm dish. Cell were transferred to 4° C. and washed with cold PBS++ at the indicated times. In all cases, cells were next washed once with cold 250 mM sucrose, 10 mM Tris pH 7.4, 0.5 mM EDTA (Buffer A). Cells were resuspended by scraping in cold Buffer A with Complete protease inhibitors (Roche), then homogenized using 16 strokes (4 plates) or 25 strokes (8 plates) in a Dounce-type teflon tissue grinder (Kontes #22, VWR). All subsequent steps were performed at 4° C. […]
The supernatant from the initial centrifugation was recentrifuged at 19,000 rpm in an SS-34 rotor (43,000×g) for 30 minutes. […] Equal volumes of each fraction were analyzed by SDS-PAGE and immunoblotting, and the total protein content in each fraction was determined using the micro-BCA kit (Pierce). In experiments where LDM and PM fractions were analyzed directly (without sedimentation of the LDM), total protein content was first determined and then equal amounts of protein were analyzed by SDS-PAGE and immunoblotting.

[5] = system: GLUT4 reporter in AML12 hepatocyte cell line; assay: GLUT4 reporter translocation in AML12 hepatocyte cell line; format: cell-based; details: AML12 cells; data not shown
[6] = system: GLUT4 at the cell surface of adipocytes; details: <10% in the absence of insulin; cited from earlier work
[7] = 3T3-L1 preadipocytes and adipocytes
[8] = all days of 3T3-L1 differentiation, 80 nM insulin

Compound: insulin
- subsequent decrease to steady-state, of peak response ([1]; 3T3-L1 adipocytes, FIG. 19A): ~20%
- peak response over basal ([1]; 3T3-L1 adipocytes, average of Day 8 and 10, FIG. 19A): 5.4 fold
- time at which steady-state level of cell surface GLUT4 is reached [1, 7]: about 15 minute
- time of peak plasma membrane GLUT4 after insulin addition [1, 7]: about 5 minute
- increase in plasma membrane GLUT4 ([1]; 3T3-L1 preadipocytes and adipocytes, peak after insulin addition): about 5 fold
- increase in cell-surface GLUT4 ([1]; 3T3-L1 preadipocytes, 5 minutes after insulin addition): fourfold
- fall of the fraction of GLUT4 on the plasma membrane after the peak [1, 8]: 20% to 40
- time of greatest proportion of GLUT4 on the plasma membrane after insulin addition [1, 8]: four to five
- time to steady-state after insulin addition [1, 8]: 15 to 20 min
- increase in the fraction of GLUT4 present at the plasma membrane ([1]; confluent 3T3-L1 preadipocytes cultured in 10% calf serum or 10% fetal bovine serum, 5 minutes): four-fold
- time at which steady-state level of cell surface GLUT4 is reached ([2]; CHO cells): about 15 minute
- time of peak plasma membrane GLUT4 after insulin addition ([2]; CHO cells): about 5 minute
- peak fraction of GLUT4 at the cell surface relative to unstimulated cells ([2]; CHO cells cultured in DMEM): 5.5 fold
- time of peak GLUT4 externalization after insulin addition ([2]; CHO cells cultured in DMEM): four to five
- time to steady-state after insulin addition ([2]; CHO cells cultured in DMEM): twenty
- part of the increase eliminated in the subsequent decrease ([2]; CHO cells cultured in DMEM, several experiments): 50% to 60
- overshoot of the final, steady-state proportion of GLUT4 at the cell surface ([2]; CHO cells cultured in F12 medium): no overshoot
- increase in plasma membrane GLUT4 ([2]; CHO cells, peak after insulin addition): about 5 fold
- shift of the population upward along the PE (myc) axis ([2]; confluent CHO cells expressing the GLUT4 reporter, FIG. 17F): ~5 fold
- increase in the proportion of GLUT4 at the cell surface [3]: twofold
- increases in the plasma membrane fraction (insulin/basal) ([4]; 3T3-L1 adipocytes, native GLUT4 and reporter protein, insulin 160 nM, 10 min, densitometry of several experiments): 5- to 10 fold
- time of peak response of GLUT4 reporter in the PM fraction after insulin addition ([4]; 3T3-L1 preadipocytes expressing the GLUT4 reporter): 8 min
- time of peak GLUT4 in the PM fraction after insulin addition ([4]; endogenous GLUT4, uninfected 3T3-L1 adipocytes, 480 nM insulin): 7 min
- insulin-stimulated translocation of the GLUT4 reporter [5]: minimal translocation
- overshoot of the steady-state response [5]: no overshoot
- proportion of GLUT4 at the cell surface in the presence of insulin [6]: 35-50%

Compound: CO[C@H]1C[C@@H]2CC[C@@H](C)[C@@](O)(O2)C(=O)C(=O)N2CCCC[C@H]2C(=O)O[C@H]([C@H](C)C[C@@H]2CC[C@@H](O)[C@H](OC)C2)CC(=O)[C@H](C)/C=C(\C)[C@@H](O)[C@@H](OC)C(=O)[C@H](C)C[C@H](C)/C=C/C=C/C=C/1C [rapamycin, reference compound]
- decrease in amount of GLUT4 reporter per cell (GFP fluorescence) ([1]; 3T3-L1 adipocytes, after rapamycin treatment, data not shown): ≤ 10%
- change in amount of GLUT4 reporter protein (GFP fluorescence) ([2]; CHO cells, after rapamycin treatment, data not shown): ≤ 10%
